Test results from patent EP4813383A1, “USE OF TAFAMIDIS AND PHARMACEUTICALLY ACCEPTABLE SALT THEREOF IN PREVENTION, ALLEVIATION, OR TREATMENT OF DISEASES ASSOCIATED WITH HIF-2a” (Huaya Jiyuan (Shenzhen) Pharmaceutical Co., Ltd., priority 2024, dated 2025).

How the values were obtained:
HIF-2α = target: T1, HIF-2α (Homo sapiens, UniProt Q99814); assay: Luciferase reporter gene assay (HRE-driven luciferase in stably transfected 786-O cells); format: cell-based
T1 construct: 786-O is a renal carcinoma cell line that predominantly expresses HIF-2α and lacks functional HIF-1α; endogenous in cells; host or cells: 786-O cells stably carrying an HRE-driven luciferase reporter
Source text: Experimental principles: 786-O is a renal carcinoma cell line that predominantly expresses HIF-2α and lacks functional HIF-1α. This characteristic makes 786-O cells an ideal model for studying HIF-2α transcriptional activity and related signaling pathways. In the luciferase reporter gene assay, a 786-O monoclonal cell line that stably expresses hypoxia response element (HRE)-driven luciferase (Luc) activity is obtained through puromycin selection. The HIF-2α agonist promotes dimerization of HIF-2α and HIF-β, and activates an HRE promoter. By measuring fluorescence intensity, luciferase activity can be determined, thereby assessing the ability of the HIF-2α agonist to promote transcription.
Experimental method: A total of 6000 stably transfected 786-O cells stably containing HRE and Luc sequences are seeded in each well of a 96-well plate, and 100 µL of RPMI-1640 culture medium containing 10% fetal bovine serum is added to each well. After 24 hours, a compound at a corresponding concentration is added to each well. A blank group is set as a control. Only a DMSO solvent is added in the well of the blank group. For initial compound screening, both tafamidis and tafamidis meglumine are tested at two concentrations: 2 µM and 20 µM. For concentration-gradient determination, each concentration is tested in triplicate. After co-incubation for 24 hours, the culture medium is discarded, and 20 µL of firefly luciferase reporter gene cell lysis buffer (RG126M, Beyotime) is added to each well. The 96-well plate is shaken on a microplate shaker for 10 minutes. After shaking, 10 µL of lysate is transferred into a white opaque plate, and then 10 µL of Steady-Lumi™ firefly luciferase assay reagent (RG058S, Beyotime) is added to each well. Finally, luminescence is measured using a microplate reader (Agilent Synergy Neo2). E20 represents the effect of the compound at a 20 µM concentration, and is calculated as: E20 = fluorescence value of the 20 µM well ÷ fluorescence value of the blank control × 100%. E2 represents the effect of the compound at a 2 µM concentration, and is calculated as: E2 = fluorescence value of the 2 µM well ÷ fluorescence value of the blank control × 100%. EC50 is the compound concentration at which the agonistic efficacy is increased by 50% relative to the blank control. The agonistic efficacy of a compound is determined by calculating the concentration (EC50) required to achieve a 50% increase in the fluorescence activity relative to the blank control and a maximum activation percentage (Emax). The maximum activation percentage (Emax) of an agonist refers to a ratio, expressed as a percentage, of the fluorescence value corresponding to the maximal effect (observed maximal response) induced when the agonist concentration reaches receptor-binding saturation in a particular receptor system, to the fluorescence value of the receptor system in the absence of agonist. In this experiment, Vyndaqel is directly used in place of tafamidis meglumine.

[1] = test system: aristolochic acid-induced zebrafish model; assay: Aristolochic acid-induced zebrafish model: cardiac erythrocyte staining intensity (renal anemia); format: in vivo, Wild-type AB strain zebrafish; details: 30 hours, normal group 100%, model group 46%
Experimental: Wild-type AB strain zebrafish at 2 days post-fertilization are randomly selected and placed in a 6-well plate, with 30 zebrafish treated in each well (treatment group). Other than the normal control group, all treatment groups are exposed to aristolochic acid in aqueous solution to establish a zebrafish renal anemia model. After treatment at 28 °C for 18 hours, a normal control group and a model control group are set up simultaneously. Tafamidis samples are administered in aqueous solution to the treatment groups separately (at concentrations of 0.1 µM and 1 µM separately). Water is administered to the normal control group and the model control group correspondingly, with a volume of 3 mL per well. After continued treatment at 28 °C for 30 hours, staining is performed using o-dianisidine. After staining, 10 zebrafish are randomly selected from each treatment group and photographed under a dissecting microscope. Data is collected using NIS-Elements D 3.20 advanced image processing software, and the staining intensity of cardiac erythrocytes in the zebrafish is analyzed. The statistical significance of this indicator is used to evaluate the efficacy of the sample in alleviating renal anemia. Statistical analysis is performed using SPSS 26.0 software, and p < 0.05 indicates a statistically significant difference.

[2] = test system: Cisplatin-induced renal injury and anemia rat model; assay: Cisplatin-induced renal injury and anemia rat model; format: in vivo, Male Sprague-Dawley (SD) rats; details: 10 mg/kg daily oral for four weeks, kidney sections
[3] = test system: aristolochic acid-induced zebrafish model; assay: Aristolochic acid-induced zebrafish chronic kidney disease model: renal edema incidence; format: in vivo, Wild-type AB strain zebrafish; details: 1 µM in aqueous solution, 30 hours; model group 100%
Experimental: Wild-type AB strain zebrafish at 2 days post-fertilization (2 dpf) are randomly selected and placed in a 6-well plate, with 30 zebrafish treated in each well (treatment group). Other than the normal control group, all treatment groups are exposed to aristolochic acid in aqueous solution to establish a zebrafish renal anemia model. After treatment at 28 °C for 18 hours, a normal control group and a model control group are set up simultaneously. Tafamidis samples are administered in aqueous solution to the treatment groups separately (at concentrations of 20 µM, 10 µM, and 1 µM separately, each concentration being tested in triplicate). Water is administered to the normal control group and the model control group correspondingly, with a volume of 3 mL per well.

T1 sequence (Q99814 whole entry): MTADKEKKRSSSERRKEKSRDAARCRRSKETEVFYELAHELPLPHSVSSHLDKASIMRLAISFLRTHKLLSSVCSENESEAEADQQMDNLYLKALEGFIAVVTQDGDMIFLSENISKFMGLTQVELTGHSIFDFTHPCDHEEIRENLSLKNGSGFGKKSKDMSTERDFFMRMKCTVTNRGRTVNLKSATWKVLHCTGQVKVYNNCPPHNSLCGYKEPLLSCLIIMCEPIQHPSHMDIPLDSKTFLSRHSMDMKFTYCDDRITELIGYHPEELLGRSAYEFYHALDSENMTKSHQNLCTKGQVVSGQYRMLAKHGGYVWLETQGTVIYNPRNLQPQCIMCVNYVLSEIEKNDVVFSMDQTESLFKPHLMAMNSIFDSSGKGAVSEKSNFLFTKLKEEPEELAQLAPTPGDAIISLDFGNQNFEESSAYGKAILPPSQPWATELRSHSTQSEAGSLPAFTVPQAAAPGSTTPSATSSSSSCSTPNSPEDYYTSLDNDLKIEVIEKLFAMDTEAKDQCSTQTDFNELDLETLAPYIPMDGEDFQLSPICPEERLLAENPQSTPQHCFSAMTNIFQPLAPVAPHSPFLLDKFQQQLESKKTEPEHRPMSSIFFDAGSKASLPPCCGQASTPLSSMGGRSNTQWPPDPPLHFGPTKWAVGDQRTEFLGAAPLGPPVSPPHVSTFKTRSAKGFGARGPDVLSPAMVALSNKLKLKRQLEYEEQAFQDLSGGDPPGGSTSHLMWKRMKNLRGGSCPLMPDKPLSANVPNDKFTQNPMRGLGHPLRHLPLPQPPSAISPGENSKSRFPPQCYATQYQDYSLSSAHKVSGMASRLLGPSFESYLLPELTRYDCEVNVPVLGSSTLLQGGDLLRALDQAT
T1 sequence (P27540 whole entry partner): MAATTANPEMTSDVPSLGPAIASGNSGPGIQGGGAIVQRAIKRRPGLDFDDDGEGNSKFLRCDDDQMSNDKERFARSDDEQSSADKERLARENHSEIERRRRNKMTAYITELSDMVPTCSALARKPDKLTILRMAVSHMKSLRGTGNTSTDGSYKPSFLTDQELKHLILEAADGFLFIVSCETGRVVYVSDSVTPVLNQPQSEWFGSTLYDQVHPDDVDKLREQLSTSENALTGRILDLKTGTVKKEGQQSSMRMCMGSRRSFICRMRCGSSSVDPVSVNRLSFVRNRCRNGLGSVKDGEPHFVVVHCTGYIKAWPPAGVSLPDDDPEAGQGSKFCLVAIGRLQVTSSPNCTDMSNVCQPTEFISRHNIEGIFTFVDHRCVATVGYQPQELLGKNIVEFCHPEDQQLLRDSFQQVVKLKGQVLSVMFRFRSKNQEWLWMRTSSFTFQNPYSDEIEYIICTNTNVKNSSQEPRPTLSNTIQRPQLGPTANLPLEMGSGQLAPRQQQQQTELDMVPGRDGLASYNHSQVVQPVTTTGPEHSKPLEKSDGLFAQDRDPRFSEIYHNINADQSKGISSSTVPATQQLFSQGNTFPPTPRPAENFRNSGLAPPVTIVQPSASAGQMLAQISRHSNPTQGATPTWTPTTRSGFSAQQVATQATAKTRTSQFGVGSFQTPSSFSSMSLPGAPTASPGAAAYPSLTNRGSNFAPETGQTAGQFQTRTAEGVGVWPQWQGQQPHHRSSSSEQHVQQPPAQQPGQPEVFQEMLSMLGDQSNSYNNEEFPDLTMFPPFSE

O=C(O)c1ccc2nc(-c3cc(Cl)cc(Cl)c3)oc2c1 [tafamidis, 2-(3,5-dichlorophenyl)-1,3-benzoxazole-6-carboxylic acid]
agonistic efficacy at a 2 µM concentration (E2) (HIF-2α; 2 µM, 24 hours co-incubation, fluorescence value as % of blank control (DMSO)): 142%
agonistic efficacy at a 20 µM concentration (E20) (HIF-2α; 20 µM, 24 hours co-incubation, fluorescence value as % of blank control (DMSO)): 207%
Emax (HIF-2α; 786-0, read-out: Emax (maximum activation percentage), maximal response as % of fluorescence without agonist): 225%
EC50 (HIF-2α; concentration required for a 50% increase in fluorescence activity relative to the blank control, 24 hours, read-out: EC50): 1.11 µM
cardiac red blood cell count ([1]; 0.1 µM in aqueous solution): 60%
cardiac red blood cell count ([1]; 1 µM in aqueous solution): 65%
α-smooth muscle actin (α-SMA) protein levels, immunohistochemical [2]: significantly reduces
renal edema incidence [3]: 80%
